In patent publication US11472778B2, “Hepatitis C virus NS3/4A protease inhibitors” (priority 2017, dated 2022):
Like-named read-outs stand apart in the source and are kept apart here.

Tests used:
[1] = tested on: wild-type HCV replicon in Huh7 cells; assay: Cell-based drug susceptibility (replicon) assay, wild-type; settings: Hepatitis C virus, read-out: Replicon EC50 (nM) WT
Experimental: (§1) Mutations (R155K, A516T, D168A and D168V) were constructed by site-directed mutagenesis using a Con1 (genotype 1b) luciferase reporter replicon containing the H77 (genotype 1a) NS3 sequence.
(§2) Replicon RNA of each protease variant was introduced into Huh7 cells by electroporation. Replication was then assessed in the presence of increasing concentrations of protease inhibitors by measuring luciferase activity (relative light units) 96 h after electroporation.
(§3) Mutations (R155K, D168A and A156T) were constructed by site-directed mutagenesis using a Con1 (genotype 1b) luciferase reporter replicon containing the H77 (genotype 1a) NS3 sequence.^6 Replicon RNA of each protease variant was introduced into Huh7 cells by electroporation. Replication was then assessed in the presence of increasing concentrations of protease inhibitors by measuring luciferase activity (relative light units) 96 h after electroporation.

[2] = tested on: HCV replicon D168V variant in Huh7 cells; assay: microbe, parasite or virus in culture; format: cell-based, Hepatitis C virus; settings: for EC50: Hepatitis C virus; for Replicon EC50 (Fold change) D168V: Table 4, relative to WT replicon
Experimental: as §1
Replicon RNA of each protease variant was introduced into Huh7 cells by electroporation. Replication was then assessed in the presence of increasing concentrations of protease inhibitors by measuring luciferase activity (relative light units) 96 h after electroporation. […]

[3] = tested on: HCV replicon D168A variant in Huh7 cells; assay: microbe, parasite or virus in culture; format: cell-based, Hepatitis C virus; settings: for EC50: Hepatitis C virus; for Replicon EC50 (Fold change) D168A: Table 4, relative to WT replicon
Experimental: as §1, §2, §3

[4] = tested on: HCV replicon A156T variant in Huh7 cells; assay: microbe, parasite or virus in culture; format: cell-based, Hepatitis C virus; settings: for Replicon EC50 (Fold change) A156T: Table 4, relative to WT replicon
Experimental: as §1, §2, §3

[5] = tested on: HCV replicon R155K variant in Huh7 cells; assay: microbe, parasite or virus in culture; format: cell-based, Hepatitis C virus; settings: for EC50: Hepatitis C virus; for Replicon EC50 (Fold change) R155K: Table 4, relative to WT replicon
Experimental: as §1, §2, §3

[6] = molecular target: GT1a D168A NS3/4A protease; format: biochemical, Hepatitis C virus; settings: Table 3; Ki D168A relative to GT1a WT
Experimental: (§4) For each assay, 2 nM of NS3/4A protease (GT1, D168A and GT3) was pre-incubated at room temperature for 1 h with increasing concentration of inhibitors in assay buffer [50 mM Tris, 5% glycerol, 10 mM DTT, 0.6 mM LDAO, and 4% dimethyl sulfoxide]. Inhibition assays were performed in nonbinding surface 96-well black half-area plates (Corning) in a reaction volume of 60 μt. […] Three independent data sets were collected for each inhibitor with each protease construct.
as §4, with “(GT1a” for “(GT1, D168A”, “D168A)” for “GT3)”, “(50” for “[50”, “sulfoxide, pH 7.5).” for “sulfoxide].”, “non-binding” for “nonbinding”, “μL.” for “μt.”
(§5) For each assay, 2 nM of NS3/4A protease (GT1a, R155K and D168A) was pre-incubated at room temperature for 1 h with increasing concentration of inhibitors in assay buffer (50 mM Tris, 5% glycerol, 10 mM DTT, 0.6 mM LDAO, and 4% dimethyl sulfoxide, pH 7.5). Inhibition assays were performed in non-binding surface 96-well black half-area plates (Corning) in a reaction volume of 60 μL. […] Three independent data sets were collected for each inhibitor with each protease construct. […] Gibbs free energy of binding was calculated using the following equation: ΔG=RTlnKi

[7] = molecular target: T1, wild-type GT1a NS3/4A protease (UniProt P27958, C1185S, species not given); format: biochemical, Hepatitis C virus; settings: read-out: Ki (nM) GT1a WT NS3/4A Protease
T1 construct: Ki (nM) GT1a WT NS3/4A Protease
Experimental: as §4
(§6) For each assay, 2 nM of NS3/4A protease (GT1a and D168A) was pre-incubated at room temperature for 1 h with increasing concentration of inhibitors in assay buffer (50 mM Tris, 5% glycerol, 10 mM DTT, 0.6 mM LDAO, and 4% dimethyl sulfoxide, pH 7.5). Inhibition assays were performed in non-binding surface 96-well black half-area plates (Corning) in a reaction volume of 60 μL. […] Three independent data sets were collected for each inhibitor with each protease construct.
as §5

[8] = molecular target: T2, GT1a D168A NS3/4A protease (UniProt P27958, C1185S/D1194A, species not given); format: biochemical, Hepatitis C virus; settings: read-out: Ki (nM) GT1a D168A NS3/4A Protease
T2 construct: Ki (nM) GT1a D168A NS3/4A Protease
Experimental: as §4, §6, §5

[9] = Huh-7, read-out: Replicon EC50 (nM) D168V, Table 4
[10] = Huh-7, read-out: Replicon EC50 (nM) D168A, Table 4
[11] = Huh-7, read-out: Replicon EC50 (nM) R155K, Table 4
[12] = Huh-7, 96 h, Table 2, Huh7 cells, luciferase 96 h
[13] = Huh-7, 96 h, read-out: Replicon EC50 (nM) D168V, Table 2, Huh7 cells, luciferase 96 h
[14] = Huh-7, 96 h, read-out: Replicon EC50 (nM) D168A, Table 2, Huh7 cells, luciferase 96 h
[15] = Hepatitis C virus, Huh-7, 96 h, read-out: Replicon EC50 (nM) A156T, Table 2, Huh7 cells, luciferase 96 h
[16] = Hepatitis C virus, Huh-7, read-out: Replicon EC50 (nM) A156T, Table 4
[17] = Huh-7, 96 h, read-out: Replicon EC50 (nM) R155K, Table 2, Huh7 cells, luciferase 96 h

| Structure (SMILES) | EC50 ([1]; Huh-7, Table 4) | EC50 [2, 9] | EC50 [3, 10] | EC50 [5, 11] | EC50 [1, 12] | Ki (Fold change) GT1a D168A NS3/4A Protease [6] | Ki ([7]; Table 1) | Ki ([7]; Table 3) | Ki ([8]; Table 1) | Ki ([8]; Table 3) | EC50 [2, 13] | Replicon EC50 (Fold change) D168V [2] | EC50 [3, 14] | Replicon EC50 (Fold change) D168A [3] | EC50 [4, 15] | EC50 [4, 16] | Replicon EC50 (Fold change) A156T [4] | EC50 [5, 17] | Replicon EC50 (Fold change) R155K [5] | also measured |
| --- | --- | --- | --- | --- | --- | --- | --- | --- | --- | --- | --- | --- | --- | --- | --- | --- | --- | --- | --- | --- |
| C=C[C@@H]1C[C@]1(NC(=O)[C@@H]1C[C@@H]2CN1C(=O)[C@H](C(C)(C)C)NC(=O)O[C@@H]1C[C@H]1CCCCCc1nc3ccc(OC)cc3nc1O2)C(=O)NS(=O)(=O)C1CC1 [Compound 1, grazoprevir, reference compound] | 0.14 nM | 5.41 nM | 9.69 nM | 1.89 nM | – | – | – | – | – | – | – | – | – | – | – | – | – | – | – | EC50 ([1]; Huh-7, Table 9): 0.12 nM; EC50 ([2]; Huh-7, read-out: Replicon EC50 (nM) D168V, Table 9): 5.3 nM; EC50 ([3]; Huh-7, read-out: Replicon EC50 (nM) D168A, Table 9): 11 nM; EC50 ([4]; Hepatitis C virus, Huh-7, read-out: Replicon EC50 (nM) A156T, Table 9): 200 nM; EC50 ([4]; read-out: Replicon EC50 (nM) A156T, Table 2, Huh7 cells, luciferase 96 h): 238 nM; EC50 ([5]; Huh-7, read-out: Replicon EC50 (nM) R155K, Table 9): 1.9 nM |
| COc1ccc2nc(C(C)C)c(O[C@@H]3C[C@H]4C(=O)N[C@]5(C(=O)NS(=O)(=O)C6CC6)C[C@H]5/C=C\CCCCC[C@H](NC(=O)OC(C)(C)C)C(=O)N4C3)nc2c1 [Compound 18e] | 1.43 nM | 23.7 nM | 15.3 nM | 5.02 nM | 1.43 nM | (56) fold | 4.27 nM | 4.27 nM | 239 nM | 239 ± 20 nM | 23.7 nM | (17) fold | 15.3 nM | (11) fold | 25.7 nM | 25.7 nM | (18) fold | 5.02 nM | (4) fold | – |
| COc1ccc2nc(C(C)C)c(O[C@@H]3C[C@H]4C(=O)N[C@]5(C(=O)NS(=O)(=O)C6CC6)C[C@H]5/C=C\CCCCC[C@H](NC(=O)OC5CCCC5)C(=O)N4C3)nc2c1 [Compound 22e, Cyclopentyl ((2R,6S,13aS,14aR,16aS,Z)-14a-((cyclopropylsulfonyl)carbamoyl)-2-((3-isopropyl-7-methoxyquinoxalin-2-yl)oxy)-5,16-dioxo-1,2,3,5,6,7,8,9,10,11,13a,14,14a,15,16,16a-hexadecahydrocyclopropa[e]pyrrolo[1,2-a][1,4]diazacyclopentadecin-6-yl)carbamate] | 0.48 nM | 30.1 nM | 7.96 nM | 7.63 nM | 0.48 nM | (112) fold | 1.44 nM | 1.44 nM | 161 nM | 161 ± 11 nM | 30.1 nM | (63) fold | 7.96 nM | (17) fold | 32.1 nM | 32.1 nM | (67) fold | 7.63 nM | (16) fold | – |
| O=C(N[C@H]1CCCCC/C=C\[C@@H]2C[C@@]2(C(=O)NS(=O)(=O)C2CC2)NC(=O)[C@@H]2C[C@@H](Oc3nc4ccccc4nc3-c3cccs3)CN2C1=O)OC1CCCC1 [Compound 22f, Cyclopentyl ((2R,6S,13aS,14aR,16aS,Z)-14a-((cyclopropylsulfonyl)carbamoyl)-5,16-dioxo-2-((3-(thiophen-2-yl)quinoxalin-2-yl)oxy)-1,2,3,5,6,7,8,9,10,11,13a,14,14a,15,16,16a-hexadecahydrocyclopropa[e]pyrrolo[1,2-a][1,4]diazacyclopentadecin-6-yl)carbamate] | 0.4 nM | 70 nM | 42.2 nM | 19.2 nM | 0.4 nM | (566) fold | 1.59 nM | 1.59 nM | 900 nM | 900 ± 81 nM | 70 nM | (175) fold | 42.2 nM | (106) fold | 183 nM | 183 nM | (458) fold | 19.2 nM | (48) fold | – |
| CCc1nc2ccccc2nc1O[C@@H]1C[C@H]2C(=O)N[C@]3(C(=O)NS(=O)(=O)C4CC4)C[C@H]3/C=C\CCCCC[C@H](NC(=O)OC3CCCC3)C(=O)N2C1 [Compound 22g, Cyclopentyl ((2R,6S,13aS,14aR,16aS,Z)-14a-((cyclopropylsulfonyl)carbamoyl)-2-((3-ethylquinoxalin-2-yl)oxy)-5,16-dioxo-1,2,3,5,6,7,8,9,10,11,13a,14,14a,15,16,16a-hexadecahydrocyclopropa[e]pyrrolo[1,2-a][1,4]diazacyclopentadecin-6-yl)carbamate] | 0.24 nM | 19.3 nM | 7.5 nM | 4.28 nM | 0.24 nM | (54) fold | 1.99 nM | 1.99 nM | 107 nM | 107 ± 7 nM | 19.3 nM | (80) fold | 7.5 nM | (31) fold | 24.6 nM | 24.6 nM | (103) fold | 4.28 nM | (18) fold | – |
| COc1ccc2nc(C(C)C)c(O[C@@H]3C[C@H]4C(=O)N[C@]5(C(=O)NS(=O)(=O)C6(C)CC6)C[C@H]5/C=C\CCCCC[C@H](NC(=O)OC5CCCC5)C(=O)N4C3)nc2c1 [Compound 23e, Cyclopentyl ((2R,6S,13aS,14aR,16aS,Z)-2-((3-isopropyl-7-methoxyquinoxalin-2-yl)oxy)-14a-(((1-methylcyclopropyl)sulfonyl)carbamoyl)-5,16-dioxo-1,2,3,5,6,7,8,9,10,11,13a,14,14a,15,16,16a-hexadecahydrocyclopropa[e]pyrrolo[1,2-a][1,4]diazacyclopentadecin-6-yl)carbamate] | 0.59 nM | 18.2 nM | 7.91 nM | 6.83 nM | 0.59 nM | (116) fold | 1.34 nM | 1.34 nM | 156 nM | 156 ± 17 nM | 18.2 nM | (31) fold | 7.91 nM | (13) fold | 27.6 nM | 27.6 nM | (47) fold | 6.83 nM | (12) fold | – |
